Source: US7211585B2, “5-HT7 receptor antagonists” (Laboratorios del Dr. Esteve, S.A., priority 2004, dated 2007)
Counter-ions that a name gives are not always drawn.

Target: T1, Cloned Human Serotonin Receptor, subtype 7 (h5HT7) (Homo sapiens, UniProt P34969)
T1 construct: purchased PerkinElmer 6120512; host or cells: CHO cells (membranes coated on Basic FlashPlate, Cat. SMP200)
Test: Radioligand binding assay, cloned human 5-HT7 receptor in CHO cells, [125I]LSD, Flashplate
Conditions: h5HT7 expressed in CHO cells; [125I]LSD 0.82 nM; triplicate determinations; read-out: 5-HT7 IC-50
Description: Biological Assays Radioligand Binding
Radioligand binding assays were performed using the Cloned Human Serotonin Receptor, subtype 7 (h5HT7), expressed in CHO cells, coated on Flashplate (Basic FlashPlate Cat.: SMP200) from PerkinElmer (Cat.: 6120512). The protocol assay was essentially the recommended protocol in the Technical Data Sheet by PerkinEmer Life and Analytical Sciences. The Mass membrane protein/well was typically 12 μg and the Receptor/well was about 9–10 fmoles. The Flashplate were let equilibrate at room temperature for one hour before the addition of the components of the assay mixture. The binding buffer was: 50 mM Trish-CHl, pH 7.4, containing 10 mM MgCl2, 0.5 mM EDTA and 0.5% BSA. The radioligand was [^125I]LSD at a final concentration of 0.82 nM. Nonspecific binding was determined with 50 μM of Clozapine. The assay volume was 25 μl. TopSeal-A were applied onto Flashplate microplates and they were incubated at room temperature for 240 minutes in darkness. The radioactivity were quantified by liquid scintillation spectrophotometry (Wallac 1450 Microbeta Trilux) with a count delay of 4 minutes prior to counting and a counting time of 30 seconds per well. Competition binding data were analyzed by using the LIGAND program (Munson and Rodbard, LIGAND: A versatile, computerized approach for characterization of ligand-binding systems. Anal. Biochem. 107: 220–239, 1980) and assays were performed in triplicate determinations for each point.

T1 sequence (P34969 whole entry): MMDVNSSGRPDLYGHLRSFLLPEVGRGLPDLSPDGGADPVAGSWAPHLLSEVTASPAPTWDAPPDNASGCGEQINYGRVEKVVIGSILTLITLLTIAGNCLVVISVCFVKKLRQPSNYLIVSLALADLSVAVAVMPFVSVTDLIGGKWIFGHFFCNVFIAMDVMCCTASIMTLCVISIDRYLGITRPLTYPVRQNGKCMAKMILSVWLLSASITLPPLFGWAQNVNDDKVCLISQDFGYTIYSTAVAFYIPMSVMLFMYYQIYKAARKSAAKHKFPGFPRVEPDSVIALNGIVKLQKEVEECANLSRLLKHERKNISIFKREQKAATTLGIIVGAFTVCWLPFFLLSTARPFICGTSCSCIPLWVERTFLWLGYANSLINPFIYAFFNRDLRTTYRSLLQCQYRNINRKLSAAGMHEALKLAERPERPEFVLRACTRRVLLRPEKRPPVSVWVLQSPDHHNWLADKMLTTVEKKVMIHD

Row | SMILES | IC50
1 | O=S(=O)(NCCCCN1CCc2ccccc2C1)c1ccc2ccccc2c1 [Compound 2, Naphthalene-2-sulfonic acid [4-(3,4-dihydro-1H-isoquinolin-2-yl)-butyl]-amide hydrochloride] | 59.2 nM
2 | O=S(=O)(NCCCCN1CCc2ccccc2C1)c1ccccc1 [Compound 5, N-[4-(3,4-Dihydro-1H-isoquinolin-2-yl)-butyl]-benzenesulfonamidehydrochloride] | 33.2 nM
3 | COc1cc2c(cc1OC)CN(CCCCNS(=O)(=O)c1cc(Cl)c(F)cc1F)CC2 [Compound 116, 5-Chloro-N-[4-(6,7-dimethoxy-3,4-dihydro-1H-isoquinolin-2-yl)-butyl]-2,4-difluoro-benzenesulfonamide] | 31.1 nM
4 | COc1cc2c(cc1OC)CN(CCCCNS(=O)(=O)c1ccccc1Cl)CC2 [Compound 118, 2-Chloro-N-[4-(6,7-dimethoxy-3,4-dihydro-1H-isoquinolin-2-yl)-butyl]-benzenesulfonamidehydrochloride] | 39.2 nM
5 | O=S(=O)(NCCCCN1CCc2ccccc2C1)c1cc(F)ccc1F [Compound 140, N-[4-(3,4-Dihydro-1H-isoquinolin-2-yl)-butyl]-2,5-difluoro-benzenesulfonamidehydrochloride] | 60.8 nM
6 | O=S(=O)(NCCCCN1CCc2ccccc2C1)c1cc(F)c(F)cc1F [Compound 142, N-[4-(3,4-Dihydro-1H-isoquinolin-2-yl)-butyl]-2,4,5-trifluoro-benzenesulfonamidehydrochloride] | 80.4 nM
7 | COc1cc2c(cc1OC)CN(CCCCNS(=O)(=O)c1cc(F)c(F)cc1Cl)CC2 [Compound 151, 2-Chloro-N-[4-(6,7-dimethoxy-3,4-dihydro-1H-isoquinolin-2-yl)-butyl]-4,5-difluoro-benzenesulfonamidehydrochloride] | 39 nM
8 | O=S(=O)(NCCCCN1CCc2ccccc2C1)c1c(F)cc(F)cc1Br [Compound 160, 2-Bromo-N-[4-(3,4-dihydro-1H-isoquinolin-2-yl)-butyl]-4,6-difluoro-benzenesulfonamidehydrochloride] | 74.4 nM
9 | COc1cc2c(cc1OC)CN(CCCCNS(=O)(=O)c1cccc(C)c1)CC2 [Compound 210, N-[4-(6,7-Dimethoxy-3,4-dihydro-1H-isoquinolin-2-yl)-butyl]-3-methyl-benzenesulfonamidehydrochloride] | 37.3 nM
10 | COc1cc2c(cc1OC)CN(CCCCNS(=O)(=O)c1cc(C)c(Cl)cc1C)CC2 [Compound 220, 4-Chloro-N-[4-(6,7-dimethoxy-3,4-dihydro-1H-isoquinolin-2-yl)-butyl]-2,5-dimethyl-benzenesulfonamidehydrochloride] | 67.4 nM
11 | COc1ccc(OC)c(S(=O)(=O)NCCCCN2CCc3cc(OC)c(OC)cc3C2)c1 [Compound 235, N-[4-(6,7-Dimethoxy-3,4-dihydro-1H-isoquinolin-2-yl)-butyl]-2,5-dimethoxy-benzenesulfonamidehydrochloride] | 68.4 nM
12 | COc1cc2c(cc1OC)CN(CCCCNS(=O)(=O)c1ccccc1Br)CC2 [Compound 257, 2-Bromo-N-[4-(6,7-dimethoxy-3,4-dihydro-1H-isoquinolin-2-yl)-butyl]-benzenesulfonamidehydrochloride] | 57.2 nM
